# Data from patent publication US20230192617A1, “AZABICYCLIC(THIO)AMIDES AS FUNGICIDAL COMPOUNDS” (Bayer CropScience Aktiengesellschaft, priority 2020, published 2023).
# How the values were obtained:
# Botrytis cinerea = test: B-11. Botrytis cinerea in vitro cell test; assay type: cell-based; conditions: 144 h, 20 ppm of active ingredient, 6 days incubation, liquid culture, absorbance, read-out: efficacy (inhibition of fungal growth)
# In short: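 B. cinerea spores were grown in liquid culture with compound (DMSO ≤1% final). Mycelium growth was measured spectrometrically after 6 days, with inhibition taken as absorbance relative to untreated control wells.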
# Alternaria brassicae = test: In vivo preventive test on Alternaria brassicae (leaf spot on radish or cabbage); conditions: 500 ppm of active ingredient, preventive spray on radish or cabbage, evaluated 3 to 4 days after inoculation, read-out: efficacy
# In short: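 Young radish or cabbage plants were sprayed with compound dissolved in DMSO/acetone/Tween 80 and diluted in water; controls received solvent only. Inoculation by spraying A. brassicae spore suspension 24 h later, then 3–4 days at 20 °C and 100% relative humidity.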
# [1] = test system: Colletotrichum lindemuthianum; test: In vivo preventive test on Colletotrichum lindemuthianum (leaf spot on bean); conditions: 168 h, 500 ppm of active ingredient, preventive spray on bean, evaluated 7 days after inoculation, read-out: efficacy
# In short: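 Young bean plants sprayed with compound in DMSO/acetone/Tween 80 diluted in water; solvent-only controls. Inoculated 24 h later with C. lindemuthianum spore suspension, then kept 24 h at 20 °C/100% RH and 6 days at 20 °C/90% RH.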
# Sphaerotheca fuliginea = test: In vivo preventive test on Sphaerotheca fuliginea (powdery mildew on cucurbits); conditions: Podosphaera fuliginea, 192 h; 500 ppm of active ingredient; preventive spray on gherkin; evaluated 8 days after inoculation; read-out: efficacy
# In short: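 Young gherkin plants were sprayed with compound in DMSO/acetone/Tween 80 diluted in water. They were inoculated 24 h later with a spore suspension of Sphaerotheca fuliginea. Plants were then kept for 8 days at 20 °C and 70–80% relative humidity.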
# Pyrenophora teres [2] = test: In vivo preventive test on Pyrenophora teres (net blotch on barley); conditions: 240 h, 500 ppm of active ingredient, preventive spray on barley, evaluated 10 days after inoculation, read-out: efficacy
# In short: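 Young barley plants sprayed preventively with compound formulated in DMSO/acetone/Tween 80 and diluted in water; controls got solvent only. Inoculated 24 hours later with P. teres spore suspension, then held 48 hours at 20° C, 100% RH and 8 days at 20° C, 70-80% RH.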
# Alternaria alternata = Alternaria alternata in vitro cell test; assay type: cell-based; conditions: 120 h, 20 ppm of active ingredient, liquid culture, 5 days incubation, spectrometric measurement of mycelium growth, read-out: efficacy (inhibition of fungal growth)
# In short: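 Liquid culture assay in which A. alternata spores in medium received DMSO-solubilized compound (final DMSO ≤1%). After 5 days, mycelium growth was measured spectrometrically. Inhibition was calculated against fungicide-free control wells.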
# [3] = test system: Colletotrichum lindemuthianum; test: B-8. Colletotrichum lindemuthianum in vitro cell test; assay type: cell-based; conditions: 144 h, 20 ppm of active ingredient, 6 days incubation, liquid culture, absorbance, read-out: efficacy (inhibition of fungal growth)
# In short: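 Spore suspension of C. lindemuthianum in liquid medium exposed to DMSO-solubilized compounds (final DMSO ≤1%) for 6 days. Mycelial growth read by absorbance, with inhibition calculated relative to compound-free control wells.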
# Pyrenophora teres [4] = test: B-10. Pyrenophora teres in vitro cell test; assay type: cell-based; conditions: 144 h, 20 ppm of active ingredient, 6 days incubation, liquid culture, absorbance, read-out: efficacy (inhibition of fungal growth)
# In short: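 Liquid-culture assay on a P. teres spore suspension with compounds added to the medium from DMSO solutions, final DMSO ≤1%. Mycelium growth read spectrometrically after 6 days. Inhibition calculated from absorbance against untreated control wells.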
Structure (SMILES),inhibition at 20 ppm (Botrytis cinerea) [%],pest or weed control at 500 ppm (Alternaria brassicae) [%],pest or weed control at 500 ppm [1] [%],pest or weed control at 500 ppm (Sphaerotheca fuliginea) [%],pest or weed control at 500 ppm (Pyrenophora teres [2]) [%],inhibition at 20 ppm (Alternaria alternata) [%],inhibition at 20 ppm [3] [%],inhibition at 20 ppm (Pyrenophora teres [4]) [%]
Cc1ccc(CCNC(=O)c2c(Oc3cccc(C4CC4)c3F)nnc3ccccc23)c(C)c1 [I-070],90 to 100,90 to 100,90 to 100,90 to 100,90 to 100,90 to 100,90 to 100,90 to 100
O=C(NCC(F)(F)c1ccc(Br)cc1Cl)c1c(Oc2cccc(C(F)(F)F)c2)nnc2c1COCC2 [I-229],90 to 100,90 to 100,90 to 100,90 to 100,70 to 79,90 to 100,90 to 100,90 to 100
Cc1ccc(C(F)(F)CNC(=O)c2c(Oc3cccc(C(F)F)c3)nnc3c2CCCC3)c(Cl)c1 [I-243],90 to 100,90 to 100,90 to 100,90 to 100,90 to 100,90 to 100,90 to 100,90 to 100
O=C(NCC(F)(F)c1ccc(Br)cc1Cl)c1c(Oc2cccc(C(F)(F)F)c2)nnc2c1CCC2 [I-212],90 to 100,90 to 100,90 to 100,90 to 100,90 to 100,90 to 100,90 to 100,90 to 100
Cc1cc(Br)ccc1C(F)(F)CNC(=O)c1c(Oc2cccc(C(F)F)c2)nnc2c1CCCC2 [I-150],90 to 100,90 to 100,90 to 100,90 to 100,90 to 100,90 to 100,90 to 100,90 to 100
Cc1ccc(C(F)(F)CNC(=O)c2c(Oc3cccc(C(F)(F)F)c3)nnc3c2COCC3)c(Cl)c1 [I-124],90 to 100,90 to 100,90 to 100,90 to 100,80 to 89,90 to 100,90 to 100,90 to 100
Cc1ccc(C(F)CNC(=O)c2c(Oc3cccc(C4CC4)c3F)nnc3c2CCCC3)c(C)c1 (stereo not drawn) [I-137],90 to 100,90 to 100,90 to 100,90 to 100,80 to 89,90 to 100,90 to 100,90 to 100
Cc1ccc(C(F)CNC(=O)c2c(Oc3cccc(C(F)(F)F)c3)nnc3c2COCC3)c(C)c1 (stereo not drawn) [I-123],90 to 100,90 to 100,90 to 100,90 to 100,90 to 100,90 to 100,90 to 100,90 to 100
Cc1ccc(C(F)(F)CNC(=O)c2c(Oc3cccc(Br)c3)nnc3ccccc23)c(C)c1 [I-216],90 to 100,90 to 100,90 to 100,90 to 100,70 to 79,90 to 100,90 to 100,90 to 100
Cc1ccc(C(F)(F)CNC(=O)c2c(Oc3cccc(Br)c3F)nnc3c2CCCC3)c(C)c1 [I-128],90 to 100,90 to 100,90 to 100,90 to 100,90 to 100,90 to 100,90 to 100,90 to 100
Cc1ccc(C(F)(F)CNC(=O)c2c(Oc3cccc(Br)c3F)nnc3ccccc23)c(C)c1 [I-227],90 to 100,90 to 100,80 to 89,90 to 100,70 to 79,90 to 100,90 to 100,90 to 100
O=C(NC[C@H](F)c1ccc(Cl)cc1Cl)c1c(Oc2cccc(C(F)(F)F)c2)cnc2ccoc12 (racemic) [I-067],90 to 100,90 to 100,90 to 100,90 to 100,80 to 89,90 to 100,90 to 100,90 to 100
Cc1ccc(C(F)(F)CNC(=O)c2c(Oc3cccc(C(F)(F)F)c3)nnc3c2CCCC3)c(Cl)c1 [I-239],90 to 100,90 to 100,90 to 100,90 to 100,90 to 100,90 to 100,90 to 100,90 to 100
Cc1ccc(C(F)(F)CNC(=O)c2c(Oc3cccc(Cl)c3)nnc3c2CCCC3)c(C)c1 [I-121],90 to 100,90 to 100,90 to 100,90 to 100,90 to 100,90 to 100,90 to 100,90 to 100
"Cc1ccc(C(F)(F)CNC(=O)c2c(Oc3cccc(Cl)c3F)nnc3c2CCCC3)c(Cl)c1 [I-140, 3-(3-chloro-2-fluoro-phenoxy)-N-[2-(2-chloro-4-methyl-phenyl)-2,2-difluoro-ethyl]-5,6,7,8-tetrahydrocinnoline-4-carboxamide]",90 to 100,90 to 100,90 to 100,90 to 100,90 to 100,90 to 100,90 to 100,90 to 100
Cc1ccc(C(F)(F)CNC(=O)c2c(Oc3cccc(Cl)c3F)nnc3c2CCC3)c(Cl)c1 [I-143],90 to 100,90 to 100,90 to 100,90 to 100,90 to 100,90 to 100,90 to 100,90 to 100
Cc1ccc(C(F)(F)CNC(=O)c2c(Oc3cccc(C4CC4)c3F)nnc3c2CCCC3)c(Cl)c1 [I-141],90 to 100,90 to 100,90 to 100,90 to 100,90 to 100,90 to 100,90 to 100,90 to 100
"Cc1ccc(C(F)(F)CNC(=O)c2c(Oc3cccc(C4CC4)c3F)nnc3ccccc23)c(C)c1 [I-071, 3-(3-cyclopropyl-2-fluoro-phenoxy)-N-[2-(2,4-dimethyl-phenyl)-2,2-difluoro-ethyl]cinnoline-4-carboxamide]",90 to 100,90 to 100,90 to 100,90 to 100,90 to 100,90 to 100,90 to 100,90 to 100
Cc1ccc(C(F)(F)CNC(=O)c2c(Oc3cccc(C4CC4)c3F)nnc3c2CCC3)c(Cl)c1 [I-144],90 to 100,90 to 100,90 to 100,90 to 100,80 to 89,90 to 100,90 to 100,90 to 100
Cc1cc(Br)ccc1C(F)(F)CNC(=O)c1c(Oc2cccc(Cl)c2F)nnc2c1CCCC2 [I-152],90 to 100,90 to 100,90 to 100,90 to 100,80 to 89,90 to 100,90 to 100,90 to 100
O=C(NCC(F)(F)c1ccc(Cl)cc1Cl)c1c(Oc2cccc(C(F)(F)F)c2)nnc2c1COCC2 [I-228],90 to 100,90 to 100,90 to 100,90 to 100,70 to 79,90 to 100,90 to 100,90 to 100
